Values quoted from earlier work in publication PMC5364125 (EJNMMI Research, 2017).

Key:
[1] = design: method as in PMID 25616581; details: cited from earlier work
TSPO [2] = details: human subjects; cited from earlier work
[3] = design: method as in PMID 27329083; details: rats; cited from earlier work
[4] = design: method as in PMID 27329083; details: cited from earlier work
TSPO [5] = details: cited from earlier work

Structure (SMILES): CC[C@@H](C)N(C)C(=O)c1cc2ccccc2c(-c2ccccc2Cl)n1 [(R)-PK11195, reference compound]
- logP [1]: 2.54

Structure (SMILES): CC[C@@H](C)N([11CH3])C(=O)c1cc2ccccc2c(-c2ccccc2Cl)n1 [(R)-[^11C]PK11195]
- V T caudate (TSPO [2]): 0.3 ± 0.1
- V T cerebellum (TSPO [2]): 0.3 ± 0.1
- V T frontal cortex (TSPO [2]): 0.3 ± 0.1
- V T parietal cortex (TSPO [2]): 0.4 ± 0.1
- V T putamen (TSPO [2]): 0.3 ± 0.1
- V T thalamus (TSPO [2]): 0.4 ± 0.1

Structure (SMILES): CCCN(CCC)C(=O)Cc1c(-c2ccc(OC)cc2)nc2c(Cl)cc(Cl)cn12 [CB184]
- abnormalities in the acute toxicity test [3]: absence of any abnormalities
- logP [1]: 2.06
- mutagenicity [4]: absence of mutagenicity
- relative TSPO binding affinity to (R)-PK11195 (TSPO [5]): 7.9 fold
- Ki (TSPO [5]; read-out: K i, affinity for TSPO): 0.54 nM

Structure (SMILES): CCN(CC)C(=O)Cc1c(-c2ccc(OC)cc2)nn2c(C)cc(C)nc12 [DPA-713]
- relative TSPO binding affinity to (R)-PK11195 (TSPO [5]): 2 fold
